{
  "source": "patent US6841538B1",
  "about": "“Combination therapy using nucleic acids and radio therapy” (priority 1998, dated 2005)",
  "key": {"tumor cells": {"test_system": "tumor cells", "conditions": "Son and Huang 1994; cited from earlier work"}, "MCA 207 tumor [1]": {"test_system": "MCA 207 tumor", "assay": "Tumor growth, combination with INEX 303 pINEX-TK10 and ganciclovir", "format": "in vivo, C57 BL/6 mice", "conditions": "OncoTCS 0.5 mg/kg i.v. then INEX 303 pINEX-TK10 i.v. and ganciclovir i.p.", "method": "C57 BL/6 mice are seeded subcutaneously with MCA 207 tumor cells. Tumor seeding is performed by standard techniques. Mice are seeded subcutaneously on the hip flank with 100,000 MCA-207 fibrosarcoma tumor cells by […] injection on day zero. The tumor cells are cultivated and prepared according to standard techniques using RPMI media with 10% Fetal Bovine Serum (see, for example, Current Protocols in Molecular Biology, Eds. Ausubel, F. M., et al.)\nAt 8, 16, 24, 30, 36, 42 or […] after OncoTCS treatment, the mice are injected i.v. via tail vein with INEX 303 containing pINEX-TK10 prepared as described herein (100 μg DNA with about 500 μg lipid all in about 200 μL total volume). Control mice receive HBS.\n1 mg ganciclovir, which is in 200 μL PBS (approximately 50 mg/kg; commercially available from Hoffman La Roche) is administered by intraperitoneal injection 12 h and 24 h after SPLP administration."}, "MCA 207 tumor [2]": {"test_system": "MCA 207 tumor", "assay": "Tumor growth, combination with pINEX-IL-12 in INEX 324", "format": "in vivo, C57 BL/6 mice", "conditions": "subtherapeutic vincristine (OncoTCS 0.5 mg/kg i.v.) then INEX 324 pINEX-IL-12 100 μg DNA i.v.", "method": "C57 BL/6 mice are seeded subcutaneously with MCA 207 tumor cells. Tumor seeding is performed by standard techniques. Mice were seeded subcutaneously on the hip flank with 100,000 MCA-207 fibrosarcoma tumor cells by sub-cutaneous injection on day zero.\nOn days 7-10, when tumors had developed to useable sizes, mice were injected i.v. via tail vein with approximately 0.5 mg/kg of OncoTCS ([…]).\nAt 8, 16, 24, 30, 36, 42 or […] after OncoTCS treatment, the mice were injected i.v. via tail vein with INEX 324 (100 μg DNA pINEX-IL-12 with about 500 μg lipid all in about 200 μL total volume). Control mice received HBS."}, "SK-OV-3 cells [3]": {"test_system": "SK-OV-3 cells", "assay": "Lipid mediated transfection (lipoplexes or SPLPs), luciferase activity", "format": "cell-based, human", "conditions": "for increase in luciferase expression, (+/−) vs (−/−) culture: peak; for difference in luciferase activity between (−/−) and (+/+) cultures: 26 hrs", "method": "Lipoplexes were prepared as follows: All reagents were sterile and cooled to 4° C. prior to complex preparation. A solution containing 62 μM dioleoyldimethylammonium chloride: 1,2-sn-dioleoylphosphatidylethanolamine (DODAC:DOPE) large unilamellar vesicles (LUVs) and a solution containing 10 μg/mL plasmid DNA were prepared in distilled water. The DNA was added to an equal volume of lipid dropwise, while vortexing. The solution was incubated on ice for 30 minutes prior to transfection. The resulting lipoplexes contained a final DNA concentration of 0.5 μg/100 μL and the cationic lipid:DNA (+:−) charge ratio was 1:1.\nPlasmid containing a therapeutic gene was encapsulated as SPLP using the detergent dialysis method of INEX 351. The SPLP contained 42.5:42.5:15 mol % of DOPE:DODAC:1-O-[2′-(w-methoxypolyethyleneglycol) succinoyl]-2-N-octoylsphingosine, (PEG-CerC8), at a lipid:DNA ratio of 15:1 (w/w). SPLPs were separated from empty liposomes by centrifugation through a discontinuous sucrose gradient.\n(§1) SK-OV-3 or HeLa-luc cells were seeded at a density of 30,000 cells per well in a 24 well plate in growth media 24 hours prior to treatment with aphidicolin. Aphidicolin (Sigma) was reconstituted in phosphate buffered saline containing 0.5% DMSO. Cells were incubated with aphidicolin at a final concentration of 5 μg/mL in 1 mL of media per well for 16 hours prior to transfection. Transfection was accomplished by the addition of 0.5 μg of formulated DNA to each well.\nLuciferase assays were performed using the Luciferase Assay System kit (Promega, Madison, Wis.) according to the manufacturer's protocol. Cell samples were washed twice with PBS, lysed by incubation with 200 μL of lysis buffer (0.1% triton in 250 mM NaH2PO4, pH 7.4) for 20 min. 20 μL of cell lysate was assayed (in duplicate) using a mL3000 microtiter plate luminometer (Dynex Technologies). A standard curve was determined by assaying 20 μL of serial dilutions of a 1 mg/mL luciferase standard (Boehringer Mannheim). Cell lysate was assayed for protein content using the bicinchoninic acid (BCA) colorimetric method. Briefly, in a 96 well plate, 95 μL of water and 100 μL of the Micro BCA protein assay working reagent (Pierce) were added to 5 μL of cell lysate. The plates were shaken on a rotary platform at 100 rpm for 10 minutes before being incubated at 37° C. for 2 hours. Absorbance was monitored at 570 nm (Dynatech MR5000 plate reader) and protein content calculated using a standard curve of varying concentrations of BSA."}, "SK-OV-3 cells [4]": {"test_system": "SK-OV-3 cells", "assay": "Semliki Forest Virus (SFV-luc) mediated luciferase gene expression", "format": "cell-based, human", "conditions": "SFV-luc m.o.i. 0.5", "method": "as §1\nLuciferase cDNA was cloned into the multiple cloning site of pSFV 1-3. Recombinant virus encoding luciferase was prepared according to the protocol described by Liljestrom and Garoff (Maniatis, et al., Molecular Cloning, Cold Spring Harbor, N.Y., 1981, pp. 93-94). Prior to infection of SK-OV-3 cells, virus particles were activated in 0.5 mg/mL chymotrypsin for 30 minutes at room temperature. Chymotrypsin was inactivated by the addition of aprotinin to a final concentration of 0.67 mg/mL. […]\n(§2) Luciferase assays were performed using the Luciferase Assay System kit (Promega, Madison, Wis.) according to the manufacturer's protocol. […] A standard curve was determined by assaying 20 μL of serial dilutions of a 1 mg/mL luciferase standard (Boehringer Mannheim). […] Absorbance was monitored at 570 nm (Dynatech MR5000 plate reader) and protein content calculated using a standard curve of varying concentrations of BSA."}, "SK-OV-3 cells [5]": {"test_system": "SK-OV-3 cells", "assay": "Cell cycle status by propidium iodide flow cytometry", "format": "cell-based, human", "method": "as §1\nThe cell cycle status of cultures was determined by flow cytometry of permeabilized cells that were stained with propidium iodide. Prior to harvesting, media was aspirated and the cells were washed twice with 2 mL phosphate buffered saline (PBS). After washing, 2-3 drops of pre-warmed trypsin-EDTA (0.25% trypsin, 1 mM EDTA; Gibco BRL) was added to each well and the plate was incubated at 37° C. until the cells had detached from the plate. Trypsin was inactivated by the addition of 1.5 mL of cold media; The samples were transferred to 6 mL polystyrene tubes (Becton-Dickenson, San Jose, Calif., USA) and centrifuged at 2000 rpm for 5 min (Beckman GS-6R, rotor GH3.8). Cells were fixed and permeabilized by incubation for 10 min in 70% methanol (pre-chilled to −70° C.). Samples were then centrifuged at 2000 rpm for 5 min and the cells were incubated in 0.5 mL of 150 μg/mL propidium iodide (Molecular Probes, Eugene, Oreg.) in PBS for 30 minutes on ice in the dark prior to analysis by flow cytometry. 5,000 cells were analyzed in the FL2 channel (λemission=585+/−21 nm) of a FACSort flow cytometer (Becton-Dickinson, San Jose, Calif.) equipped with an Ar- ion laser (λexcitation=488 nm)"}, "HeLa-luc cells": {"test_system": "HeLa-luc cells", "assay": "Luciferase gene expression in stably transfected HeLa-luc cells", "format": "cell-based, human", "conditions": "HeLa-luc, 0, 6 and 24 hours after arrest vs untreated control cells", "method": "SK-OV-3 cells human ovarian tumor cells, ATCC) were cultured in RPMI 1640 media (StemCell Technologies, Vancouver, B.C.) supplemented with 10% fetal bovine serum (Intergen). HeLa-luc cells were stably transfected with a luciferase reporter plasmid and cultured in Dulbecco's modified Eagle medium (StemCell Technologies, Vancouver, B.C.) supplemented with 10% fetal bovine serum and 400 μg/mL Geneticin (Gibco BRL).\nas §1, §2"}, "SK-OV-3 cells [6]": {"test_system": "SK-OV-3 cells", "assay": "Uptake of YOYO-1 labeled plasmid lipoplexes by flow cytometry", "format": "cell-based, human", "conditions": "aphidicolin 5 μg/mL 16 hr; vs control cells", "method": "as §1\nFor the plasmid DNA uptake experiments, the method previously described (Zabner, et al., J. Biol. Chem., 270:18997-19007 (1995); Tseng, et al., Biotechnol. Bioeng., 50:548-554 (1996)) using fluorescently labeled DNA and flow cytometry was used with the following modifications. Plasmid DNA was fluorescently labeled by incubation with YOYO-1 iodide (Molecular Probes, Eugene, Oreg.) at a dye:basepair ratio of […] for 10 minutes at 4° C. The sample was then dialyzed twice against autoclaved deionized water.\nLipoplexes were prepared using YOYO-1 labeled DNA and incubated with cells. […] Fluorescence was measured in the FL1 channel (λemission=530+/−15 nm) of a FACSort flow cytometer (Becton-Dickinson, San Jose, Calif.) equipped with an Ar- ion laser (λexcitation=488 nm). Data was collected from 10,000 cells and analyzed for fluorescence using CellQuest software."}, "[7]": {"conditions": "(+/−) cultures, 1 hr exposure, either formulation"}},
  "data": [
    {"smiles": "N.N.[Cl][Pt][Cl]", "note": "[Cisplatin]", "values": [
      {"measurement": "expression of plasmid delivered directly to tumor cells after drug treatment", "setting": "tumor cells", "value": "improved expression"}
    ]},
    {"smiles": "CC[C@]1(O)C[C@H]2CN(CCc3c([nH]c4ccccc34)[C@@](C(=O)OC)(c3cc4c(cc3OC)N(C=O)[C@H]3[C@@](O)(C(=O)OC)[C@H](OC(C)=O)[C@]5(CC)C=CCN6CC[C@]43[C@@H]65)C2)C1", "note": "[Vincristine]", "values": [
      {"measurement": "tumor growth vs HSV-TK/ganciclovir system alone", "setting": "MCA 207 tumor [1]", "value": "inhibits growth of tumors and promotes tumor regression to a significantly greater degree"},
      {"measurement": "tumor growth", "setting": "MCA 207 tumor [2]", "value": "Tumor growth is inhibited and regression in tumor size is visible"},
      {"measurement": "expression of plasmid delivered directly to tumor cells after drug treatment", "setting": "tumor cells", "value": "not found to be effective"}
    ]},
    {"smiles": "C[C@@]1(CO)[C@H](O)CC[C@@]2(C)[C@H]1CC[C@H]1C[C@@H]3C[C@@]12CC[C@]3(O)CO", "note": "[aphidicolin]", "values": [
      {"measurement": "time after removal of aphidicolin at which luciferase expression begins to increase", "setting": "SK-OV-3 cells [3]; [7]", "value": "approximately 10 hours"},
      {"measurement": "time after removal of aphidicolin of maximum luciferase expression", "setting": "SK-OV-3 cells [3]; [7]", "value": 12, "unit": "h"},
      {"measurement": "increase in luciferase expression, (+/−) vs (−/−) culture", "setting": "SK-OV-3 cells [3]; SPLPs, 1 hr exposure", "value": 8, "unit": "fold"},
      {"measurement": "difference in luciferase activity between (−/−) and (+/+) cultures", "setting": "SK-OV-3 cells [3]; SPLPs", "value": 20, "unit": "fold"},
      {"measurement": "increase in luciferase expression, (+/−) vs (−/−) culture", "setting": "SK-OV-3 cells [3]; lipoplexes, 1 hr exposure", "value": 3, "unit": "fold"},
      {"measurement": "decrease in luciferase gene expression, (+/+) culture", "setting": "SK-OV-3 cells [3]; lipoplexes, 24 hrs continuous exposure, continued aphidicolin", "value": 20, "unit": "fold"},
      {"measurement": "luciferase expression of (+/−) cultures vs (−/−) control", "setting": "SK-OV-3 cells [3]; lipoplexes, 24 hrs, aphidicolin removed", "value": "did not differ significantly"},
      {"measurement": "difference in luciferase activity between (−/−) and (+/+) cultures", "setting": "SK-OV-3 cells [3]; lipoplexes", "value": "approximately 40 fold"},
      {"measurement": "pattern of SFV-luc gene expression between (−/−), (+/−) and (+/+) cultures", "setting": "SK-OV-3 cells [4]", "value": "no significant difference"},
      {"measurement": "cells in the G2/M phase, (+/−) culture", "setting": "SK-OV-3 cells [5]; 16 hrs after removal of aphidicolin block", "value": "approximately 85%"},
      {"measurement": "cells progressed into the G1 phase after mitotic division, (+/−) culture", "setting": "SK-OV-3 cells [5]; 22 hrs after removal of aphidicolin block", "value": "~45", "unit": "%"},
      {"measurement": "cells remaining arrested in the G1 phase, (+/+) culture", "setting": "SK-OV-3 cells [5]; end of the 24 incubation with lipoplexes, continued aphidicolin", "value": "approximately 95%"},
      {"measurement": "cells remaining arrested in the G1 phase, (+/+) cultures", "setting": "SK-OV-3 cells [5]; throughout kinetics experiments (to 26 hrs) with lipoplexes or SPLPs", "value": 95, "unit": "%"},
      {"measurement": "effect on level of luciferase gene expression", "setting": "HeLa-luc cells", "value": "did not significantly affect"},
      {"measurement": "effect of cell cycle arrest on internalization of lipoplexes", "setting": "SK-OV-3 cells [6]", "value": "does not affect the internalization of lipoplexes"}
    ]}
  ]
}
